In EP0751768B1, “ANTI-VIRAL AND ANTI-CANCER AGENT” (Radopath Pharmaceuticals International Limited, priority 1994, dated 1995):
Values joined by “and” are separate entries in the source; they are usually repeats but may differ in a detail not shown here. Equal entries are not always repeated. Where two headings read alike, the source gives them in different places.

Tests used:
[1] = test system: uninfected cells
[2] = test system: HIV-I IIIB; experiment: Acute infection assay, HIV core antigen ELISA (HIV-I IIIB); format: cell-based
[3] = test system: MAC15A (murine adenocarcinoma colon); format: in vivo, NMR1 mice
[4] = test system: HIV-1RF; experiment: microbe, parasite or virus in culture; format: cell-based, human immunodeficiency virus HIV-1RF; conditions: read-out: IC50
[5] = test system: HIV-1 infection; experiment: Pilot study of C17 in patients with HIV-1 infection and HIV-related Kaposi's sarcoma; format: in vivo, humans; set-up: CD4 ABS / CD8 ABS: unit not given here
[6] = mice, preliminary data
[7] = In vitro anti-tumour activity; format: cell-based; conditions: compound appears to require activation in the liver
[8] = in vivo; conditions: mouse, iv
[9] = test system: B16 murine melanoma; experiment: Anti-tumour activity of C17 against B16 melanoma (tumour weight inhibition); format: in vivo, female C57/black mice
[10] = in vivo; conditions: rat, iv
[11] = rats, preliminary data
[12] = in vitro; conditions: CC50 (Toxicity)
[13] = test system: B16F1-murine melanoma; format: in vivo
[14] = test system: M5076-reticulum cell sarcoma; experiment: Anti-tumour activity against M5076 solid tumour (tumour weight inhibition); format: in vivo, murine
Method: The in vivo anti-tumour responses of the compound according to the invention were assessed against the ascitic tumours, MAC15A murine colon adenocarcinoma and various solid tumour models. The MAC15A ascites tumour cells were transplanted into male NMR1 mice by ip innoculation at a cell density of 1 x 10^5 cells in 200µl buffer (Table I). The solid tumour models included the MAC13 and MAC16 murine colon adenocarcinomas, the B16 F1 murine melanoma and the M5076 reticulum cell sarcoma.
Treatment commenced 3 days after ip transplant or, in the case of solid tumours such as MAC13 and MAC16, treatment commenced when average tumour volumes reached 40mm^3.
The animals were located in both cases into groups of 5 to 8 animals.
The animals were sacrificed after 12 days or when tumours ulcerated, tumour volume exceeded 1000mm^3 or loss of body weight exceeded 50%.
Except where otherwise stated, the compound used was dissolved in DMSO and diluted in sterile distilled water, at appropriate concentrations before administration in a solvent volume of 200µl. Anti-tumour responses were obtained by comparing the median survival times or tumour growth inhibition against solvent controls.
% Tumour Weight Inhibition:-

[15] = read-out: CC50 (Toxicity), listed under Against HIV-I IIIB, single determinations
[16] = Against HIV-I IIIB, single determinations, read-out: IC50 (Antiviral)
[17] = 100mg kg^-1 ip per day, schedule days 1,2,3,4,5, median, T-test group, C-solvent control, 5 animals per group
[18] = control compounds in infected cells
[19] = day 7, MTD by 5 consecutive daily intravenous injections
[20] = read-out: CC50 (Toxicity), Average, listed under Against HIV-I IIIB, average of the lines above
[21] = Against HIV-I IIIB, average of the lines above, read-out: IC50 (Antiviral), Average

NC(=O)c1cc([N+](=O)[O-])c(Cl)c([N+](=O)[O-])c1Cl [C2]
CC50 [1, 15]: 70 µM
IC50 [2, 16]: 2 µM

O=C(O)c1cc([N+](=O)[O-])cc([N+](=O)[O-])c1 [C29, 3,5-dinitrobenzoic acid]
T/C% [3, 17]: 100%

CC(C)(C)NC(=O)[C@@H]1C[C@@H]2CCCC[C@@H]2CN1C[C@@H](O)[C@H](Cc1ccccc1)NC(=O)[C@H](CC(N)=O)NC(=O)c1ccc2ccccc2n1 [compound 8959]
IC50 [4, 18]: 0.001 µM

O=C(O)c1ccc(Cl)c([N+](=O)[O-])c1 [C9, 4-chloro-3-nitrobenzoic acid]
CC50 [1]: > 200 µM

O=C(O)c1ccc([N+](=O)[O-])cc1[N+](=O)[O-] [C28, 2,4-dinitrobenzoic acid]
T/C% [3, 17]: 100%

O=C(O)c1ccc([N+](=O)[O-])cc1Cl [C10, 2-chloro-4-nitrobenzoic acid]
CC50 [1]: > 200 µM

O=C(O)c1cc([N+](=O)[O-])ccc1Cl [C17, 2-chloro-5-nitrobenzoic acid]
CD4 ABS ([5]; Patient 1, After (day 20), Before (day 1): 0.399, 10mg/kg body weight/day im 5 days weekly): 0.760
CD8 ABS ([5]; Patient 1, After (day 20), Before (day 1): 0.567, 10mg/kg body weight/day im 5 days weekly): 0.840
CD4/CD8 ([5]; Patient 1, After (day 20), Before (day 1): 0.70, 10mg/kg body weight/day im 5 days weekly): 0.90
Lymphocytes ([5]; Patient 1, After (day 20), Before (day 1): 2.1, 10mg/kg body weight/day im 5 days weekly): 2.0 x 10^3mm^-3
CD4 % ([5]; Patient 1, After (day 20), Before (day 1): 19, 10mg/kg body weight/day im 5 days weekly): 38%
CD4 ABS ([5]; Patient 2, After (day 14), Before (day 1): 0.360, 10mg/kg body weight/day im 5 days weekly): 0.513
CD4/CD8 ([5]; Patient 2, After (day 14), Before (day 1): 0.38, 10mg/kg body weight/day im 5 days weekly): 0.59
CD8 ABS ([5]; Patient 2, After (day 14), Before (day 1): 0.940, 10mg/kg body weight/day im 5 days weekly): 0.874
Lymphocytes ([5]; Patient 2, After (day 14), Before (day 1): 2.0, 10mg/kg body weight/day im 5 days weekly): 1.9 x 10^3mm^-3
CD4 % ([5]; Patient 2, After (day 14), Before (day 1): 18, 10mg/kg body weight/day im 5 days weekly): 27%
CD4 ABS ([5]; Patient 3, After (day 20), Before (day 1): 0.072, 10mg/kg body weight/day im 5 days weekly): 0.187
CD8 ABS ([5]; Patient 3, After (day 20), Before (day 1): 0.270, 10mg/kg body weight/day im 5 days weekly): 0.682
CD4/CD8 ([5]; Patient 3, After (day 20), Before (day 1): 0.27, 10mg/kg body weight/day im 5 days weekly): 0.27
Lymphocytes ([5]; Patient 3, After (day 20), Before (day 1): 0.9, 10mg/kg body weight/day im 5 days weekly): 1.1 x 10^3mm^-3
CD4 % ([5]; Patient 3, After (day 20), Before (day 1): 8, 10mg/kg body weight/day im 5 days weekly): 17%
CD4/CD8 ([5]; Patient 4, After (day 14), Before (day 1): 0.08, 10mg/kg body weight/day im 5 days weekly): 0.35
CD4 ABS ([5]; Patient 4, After (day 14), Before (day 1): 0.108, 10mg/kg body weight/day im 5 days weekly): 0.440
CD8 ABS ([5]; Patient 4, After (day 14), Before (day 1): 1.350, 10mg/kg body weight/day im 5 days weekly): 1.260
Lymphocytes ([5]; Patient 4, After (day 14), Before (day 1): 1.8, 10mg/kg body weight/day im 5 days weekly): 2.0 x 10^3mm^-3
CD4 % ([5]; Patient 4, After (day 14), Before (day 1): 6, 10mg/kg body weight/day im 5 days weekly): 22%
CD4/CD8 ([5]; Patient 5, After (day 21), Before (day 1): 0.56, 10mg/kg body weight/day im 5 days weekly): 0.66
CD4 ABS ([5]; Patient 5, After (day 21), Before (day 1): 0.812, 10mg/kg body weight/day im 5 days weekly): 1.023
CD8 ABS ([5]; Patient 5, After (day 21), Before (day 1): 1.456, 10mg/kg body weight/day im 5 days weekly): 1.550
Lymphocytes ([5]; Patient 5, After (day 21), Before (day 1): 2.8, 10mg/kg body weight/day im 5 days weekly): 3.1 x 10^3mm^-3
CD4 % ([5]; Patient 5, After (day 21), Before (day 1): 29, 10mg/kg body weight/day im 5 days weekly): 33%
CD4/CD8 ([5]; Patient 6 (AIDS-related Kaposi's sarcoma), After (day 34), Before (day 1): 0.31, 10mg/kg body weight/day im 5 days weekly): 0.47
CD4 ABS ([5]; Patient 6 (AIDS-related Kaposi's sarcoma), After (day 34), Before (day 1): 0.378, 10mg/kg body weight/day im 5 days weekly): 0.437
CD8 ABS ([5]; Patient 6 (AIDS-related Kaposi's sarcoma), After (day 34), Before (day 1): 1.218, 10mg/kg body weight/day im 5 days weekly): 0.931
Lymphocytes ([5]; Patient 6 (AIDS-related Kaposi's sarcoma), After (day 34), Before (day 1): 2.1, 10mg/kg body weight/day im 5 days weekly): 1.9 x 10^3mm^-3
CD4 % ([5]; Patient 6 (AIDS-related Kaposi's sarcoma), After (day 34), Before (day 1): 18, 10mg/kg body weight/day im 5 days weekly): 23%
sarcoma lesions (in words) ([5]; Patient 6, AIDS-related Kaposi's sarcoma): disappeared
CD4 counts (in words) ([5]; all 6 patients, about 2 weeks after the beginning of the therapy, 10mg/kg body weight/day im 5 days weekly): showed an increase
patient general condition (in words) ([5]; including weight gain and a marked decrease in opportunistic infections and diarrhea): clinical improvements
red blood cell count, haemoglobin concentration, macrophage count, white blood cell count (WBC), lymphocyte count and haematocrit (HTC) [6, 19]: increases
red blood cell count, haemoglobin concentration, macrophage count, white blood cell count (WBC), lymphocyte count and haematocrit (HTC) ([6]; day 14): returned to normal
anti-tumour activity in vitro (in words) [7]: could not be supported in vitro
MTD at 5 days [8]: 950 mg/kg/day
% Tumour Weight Inhibition ([9]; 700 mg/kg per day ip, days 1,2,3,4,5,6, 12 days after sc transplant, 6 animals per group): 62%
anti-tumour activity in vivo (in words) ([9]; refers to Table 6): considerable anti-tumour activity
MTD at 5 days [10]: 900 mg/kg/day
red blood cell count, haemoglobin concentration, macrophage count, white blood cell count (WBC), lymphocyte count and haematocrit (HTC) [11, 19]: increases
red blood cell count, haemoglobin concentration, macrophage count, white blood cell count (WBC), lymphocyte count and haematocrit (HTC) ([11]; day 14): returned to normal
CC50 [12]: > 1000 µM

NC(=O)c1cc([N+](=O)[O-])c(Cl)c([N+](=O)[O-])c1 [C5]
CC50 [1, 15]: 50 µM
IC50 [2, 16]: 5 µM

O=C(O)c1cc(Cl)ccc1Cl [C12, 2,5-dichlorobenzoic acid]
T/C% ([3]; mouse, in vivo, ip): 171%
CC50 [1]: > 200 µM
IC50 ([2]; Human immunodeficiency virus 1, IIIB, read-out: IC50 (Antiviral)): > 200 µM

COC(=O)c1cc([N+](=O)[O-])c(Cl)c([N+](=O)[O-])c1 [C6, 4-chloro-3,5-dinitrobenzoic acid methyl ester]
CC50 [1]: 60 µM
% Tumour Weight Inhibition ([13]; mouse, in vivo): 67% and 43%
SI (Selectivity Index) [2]: 12

NC(=O)c1cc([N+](=O)[O-])c(Cl)c([N+](=O)[O-])c1Cl [the amide]
anti-tumour activity (in words) [14]: without anti-tumour activity
increase in toxicity ([14]; relative to 2,4-dichloro-3,5-dinitrobenzoic acid): 10 fold

O=C(O)c1ccc(Cl)c(Cl)c1 [C11, 3,4-dichlorobenzoic acid]
CC50 [1]: > 200 µM

Cc1cn([C@H]2C[C@H](N=[N+]=[N-])[C@@H](CO)O2)c(=O)[nH]c1=O [AZT]
IC50 [4]: 0.01 µM and 0.02 µM

Nc1ccn([C@H]2CC[C@@H](CO)O2)c(=O)n1 [ddC]
IC50 [4, 18]: 0.2 µM

COC(=O)c1cc([N+](=O)[O-])cc([N+](=O)[O-])c1Cl [C8, 2-chloro-3,5-dinitrobenzoic acid methyl ester]
CC50 [1]: 60 µM
SI (Selectivity Index) [2]: 5

O=C(O)c1cc([N+](=O)[O-])cc([N+](=O)[O-])c1Cl [C7, 2-chloro-3,5-dinitrobenzoic acid]
CC50 [1, 20]: > 175 µM
IC50 [2, 21]: 22 µM
CC50 at 72 h ([12]; listed under Against HIV-I IIIB, single determinations): 35 µM

O=C(O)c1cc([N+](=O)[O-])c(Cl)c([N+](=O)[O-])c1 [C4, 4-chloro-3,5-dinitrobenzoic acid]
T/C% [3, 17]: 271%
CD50 ([1]; Table 7, 50% inhibition of cells by 14C protein hydrolysate uptake): 70µm
CC50 [1, 20]: 85 µM
CC50 [1, 15]: 100 µM and 70 µM
% Tumour Weight Inhibition ([13]; 50 mg/kg per day ip, days 1,5, 12 days after sc transplant, corn oil): 10%
% Tumour Weight Inhibition ([13]; 75 mg/kg per day ip, days 1,5, 12 days after sc transplant, corn oil): 41%
% Tumour Weight Inhibition ([13]; 100 mg/kg per day ip, days 1,5, 12 days after sc transplant, corn oil): 39%
IC50 [2, 21]: 35 µM
IC50 [2, 16]: 40 µM and 30 µM
IC50 ([4]; Table 7, 50% reduction in HIV core antigen levels, 72 hours post-infection): 30 µM
